According to patent US20240277705A1, “DOSAGE REGIMENS FOR ECUBECTEDIN” (PHARMA MAR S.A., priority 2021, published 2024):
Entries after “also recorded” stand apart in the source; their conditions may differ.

Tests used:
[1] = tested on: RXF 486L (hypernephroma, poorly differentiated); assay: Propidium iodide monolayer cell proliferation assay, RXF 486L; type: cell-based, human; settings: four days of treatment
Protocol: Working stock solution of PM14 was prepared in DMSO at a concentration of 1.042 mM and small aliquots were stored at −20° C. On each day of an experiment, a frozen aliquot of the working stock solution was thawed and stored at room temperature prior to and during treatment.
Subsequent dilutions were done with complete RPMI 1640 cell culture medium. DMSO stock solutions were first diluted 1:22 (corresponding to 4.5% v/v DMSO). Starting with this solution, serial dilutions in half-log steps with cell culture medium were done using an intermediate dilution plate. Finally, 10 μl taken from the intermediate dilution plate were transferred to 140 μl/well of the cell culture plate. […]
Cell proliferation assay: A modified propidium iodide (PI) based monolayer assay was used to assess the anti-cancer activity of the compounds (Dengler WA, Schulte J, Berger DP, Mertelsmann R, Fiebig HH, Anti-Cancer Drugs 1995, 6: 522-532). Briefly, cells were harvested from exponential phase cultures, counted and plated in 96 well flat-bottom microtiter plates at a cell density of 4,000 to 30,000 cells/well dependent on the cell line's growth rate. […] After an incubation period of 1-2 hours at room temperature, fluorescence (FU) was measured using the Enspire Multimode Plate Reader (excitation A=530 nm, emission A=620 nm) to quantify the amount of attached viable cells. […]

MEXF 276L (melanoma) = assay: Propidium iodide monolayer cell proliferation assay, MEXF 276L; type: cell-based, human
Protocol: (§1) Cell proliferation assay: A modified propidium iodide (PI) based monolayer assay was used to assess the anti-cancer activity of the compounds (Dengler WA, Schulte J, Berger DP, Mertelsmann R, Fiebig HH, Anti-Cancer Drugs 1995, 6: 522-532). Briefly, cells were harvested from exponential phase cultures, counted and plated in 96 well flat-bottom microtiter plates at a cell density of 4,000 to 30,000 cells/well dependent on the cell line's growth rate. After a 24 h recovery period, to allow the cells to resume exponential growth, 10 μl of culture medium (4 control wells/cell line/plate) or of culture medium with test compounds were added. PM14 was applied at ten concentrations in half-log increments in duplicates up to 3.16 pM and treatment continued for four days. […] After an incubation period of 1-2 hours at room temperature, fluorescence (FU) was measured using the Enspire Multimode Plate Reader (excitation A=530 nm, emission A=620 nm) to quantify the amount of attached viable cells.
(§2) IC50 and IC70 values were calculated by 4 parameter non-linear curve fit using Oncotest Warehouse Software. […]
(§3) IC50 values were determined as described in Example 2, but using the following human cancer cell lines: • MEXF 276L (melanoma) • MEXF 462NL (melanoma) • MEXF 1341L (melanoma)

MEXF 462NL (melanoma) = assay: Propidium iodide monolayer cell proliferation assay, MEXF 462NL; type: cell-based, human; settings: MEXL 462NL
Protocol: as §1, §2, §3

advanced solid tumors = assay: Phase I dose-escalating study, antitumor activity; type: in vivo, human; settings: patients, various cancers
Excerpt: Antitumor response will be assessed using the RECIST v.1.1 and/or serum tumor markers as appropriate (see above).
Open-label, dose-escalating, phase I trial of PM14 administered as a 3-hour infusion i.v. every 3 weeks (q3wk) in human patients (pts) with advanced solid tumors, adequate organ function and ECOG PS score of 0-1. Two schedules were explored: Schedule A (Day 1 [D1], Day 8 [D8]) and Schedule B (D1).
Secondary Endpoints • Safety: patients will be evaluable for safety if they have received at least one partial infusion of PM14. AEs will be graded according to the NCI-CTCAE v.4. Additionally, treatment-related discontinuations and treatment compliance (dose reduction, skipped doses and/or treatment delays due to AEs), will be described. • Pharmacokinetics: PK analyses will be evaluated in plasma and urine by standard non-compartmental analysis (compartmental modeling may be performed if appropriate). […] Their mutational status might also be analyzed, if relevant. Their correlation with the clinical response and outcome after treatment will be assessed. • Efficacy: patients will be evaluable for efficacy if they receive at least one complete infusion of PM14 and have at least one clinical or radiological tumor assessment as per RECIST v.1.1 or serum markers, or if they are considered to have failed treatment. […]

COc1c(C)cc2c(c1O)[C@@H]1[C@@H]3[C@@H]4SC[C@]5(N[C@H](CO)Cc6c5[nH]c5ccccc65)C(=O)OC[C@@H](c5c6c(c(C)c(OC(C)=O)c54)OCO6)N3[C@@H](O)[C@H](C2)N1C [PM14, ECUBECTEDIN]
IC50 ([1]; Homo sapiens, 96 h, read-out: IC50, μM (geometric mean)): 0.002 µM | IC70, μM (geometric mean) [1]: 0.002 µM | IC70, μM (geometric mean) (MEXF 276L (melanoma)): 0.0003 µM | IC50 (MEXF 276L (melanoma); Homo sapiens, MEXF276L, read-out: IC50, μM (geometric mean)): 0.0002 µM | IC50 (MEXF 462NL (melanoma); Homo sapiens, MEXF 462NL, read-out: IC50, μM (geometric mean)): 0.0001 µM | IC70, μM (geometric mean) (MEXF 462NL (melanoma)): 0.0001 µM | antitumor response (advanced solid tumors): prolonged tumor stabilizations; also recorded: stable disease (SD)
